Common to all, as to type: toxicity, cell-based
One data set concerns U2OS. As to the kind of experiment: Incucyte cell viability with U2OS. Conditions: human, 10 µM, compound concentration 10 uM.
The next data set concerns HEK-293T. Briefly: Incucyte cell viability with HEK293T. The note with it: human, 10 µM, compound concentration 10 uM.
The next data set relates to Fibroblast. As to the kind of experiment: Incucyte cell viability with human fibroblast. Conditions: 10 µM, compound concentration 10 uM.
Where [1] appears, read: 6 h, replicate number 1, timepoint 6 hours.
Setting [2] is: 12 h, replicate number 1, timepoint 12 hours.
Where [3] appears, read: 18 h, replicate number 1, timepoint 18 hours.
The mark [4] stands for this setting: 24 h, replicate number 1, timepoint 24 hours.
Setting [5] is: 0 h, replicate number 1, timepoint 0 hours.
The mark [6] stands for this setting: 0 h, replicate number 2, timepoint 0 hours.
[7] abbreviates: 12 h, replicate number 2, timepoint 12 hours.
Setting [8] is: 18 h, replicate number 2, timepoint 18 hours.
The mark [9] stands for this setting: 24 h, replicate number 2, timepoint 24 hours.
[10] abbreviates: 6 h, replicate number 2, timepoint 6 hours.
Note: filed as whole numbers so only -1 and 0 and 1 occur.

As for `Cc1ccccc1C(=O)Nc1ccc(C(=O)N2CCCC(O)c3cc(Cl)ccc32)c(C)c1` (stereo not drawn) [TOLVAPTAN], the “Growth Rate” value turned out to be 0 in the data set on U2OS (setting [1]); 0 in the data set with U2OS (setting [2]); 0 in the data set with U2OS (setting [3]); 1 with U2OS (setting [4]); 1 in the data set with HEK-293T (setting [5]); 0 in the data set on HEK-293T (setting [6]). In addition, the “Growth Rate” value came to 0 with HEK-293T (setting [1]); 0 with HEK-293T (setting [2]); 0 in the data set on HEK-293T (setting [3]); 0 in the data set on HEK-293T (setting [4]); 1 with Fibroblast (setting [5]); 0 in the data set with Fibroblast (setting [1]). In addition, the “Growth Rate” value was 1 with Fibroblast (setting [2]); 0 in the data set with Fibroblast (setting [7]); 1 with Fibroblast (setting [3]); 0 with Fibroblast (setting [8]); 1 with Fibroblast (setting [4]); 0 in the data set with Fibroblast (setting [9]).

Turning to `O=C(Cc1ccccc1)Nc1nc2ccc(Cl)cc2c2nc(-c3ccco3)nn12`, the “Growth Rate” value in the data set with U2OS (setting [5]) came out at 0; in the data set on U2OS (setting [10]), 0; in the data set on U2OS (setting [2]), 1; in the data set on U2OS (setting [7]), 0; in the data set on U2OS (setting [3]), 1; in the data set on U2OS (setting [8]), 0. In addition, the “Growth Rate” value in the data set with U2OS (setting [4]) came out at 1; in the data set with U2OS (setting [9]) it was 0; in the data set on HEK-293T (setting [5]), 1; in the data set with HEK-293T (setting [6]) it was 0; in the data set with HEK-293T (setting [1]), 0; with HEK-293T (setting [10]) it was 1. For the same compound, the “Growth Rate” value in the data set with HEK-293T (setting [2]) was 0; in the data set on HEK-293T (setting [3]), 0; in the data set on HEK-293T (setting [4]) it was 0; with Fibroblast (setting [5]) it was 0; with Fibroblast (setting [6]), 1; in the data set on Fibroblast (setting [10]), 0. Moreover, the “Growth Rate” value is listed as 0 with Fibroblast (setting [2]); 1 in the data set with Fibroblast (setting [7]); 0 in the data set with Fibroblast (setting [3]); 1 in the data set on Fibroblast (setting [8]); 0 in the data set with Fibroblast (setting [4]); 1 in the data set with Fibroblast (setting [9]).

Take `Cc1cc(C(C)(C)C)c(O)c(C)c1CC1=NCCN1.Cl` [OXYMETAZOLINE HYDROCHLORIDE]: the “Growth Rate” value worked out at 0 in the data set with U2OS (setting [1]); 1 in the data set on U2OS (setting [10]); 0 with U2OS (setting [2]); 1 in the data set with U2OS (setting [7]); 0 in the data set with U2OS (setting [3]); 0 in the data set on U2OS (setting [4]). Moreover, the “Growth Rate” value with U2OS (setting [9]) was determined as 1; in the data set with HEK-293T (setting [5]), 0; in the data set on HEK-293T (setting [1]), 1; in the data set on HEK-293T (setting [10]) it was 0; in the data set with HEK-293T (setting [2]), 1; in the data set with HEK-293T (setting [7]), 0. The “Growth Rate” value came to 1 with HEK-293T (setting [3]); 0 in the data set with HEK-293T (setting [8]); 1 in the data set on HEK-293T (setting [4]); 0 in the data set with HEK-293T (setting [9]); 0 in the data set on Fibroblast (setting [5]); 1 with Fibroblast (setting [10]). The “Growth Rate” value with Fibroblast (setting [2]) turned out to be 1; with Fibroblast (setting [3]) it was 1; in the data set on Fibroblast (setting [4]), 1; with Fibroblast (setting [9]), 0.

On to `COc1cc(C(=O)NS(=O)(=O)c2ccccc2C)ccc1Cc1cn(C)c2ccc(NC(=O)OC3CCCC3)cc12` [ZAFIRLUKAST], for which the “Growth Rate” value with U2OS (setting [5]) was 0; in the data set on U2OS (setting [10]), 1; in the data set on U2OS (setting [2]), 1; in the data set with U2OS (setting [3]), 1; in the data set on U2OS (setting [4]), 1; in the data set with HEK-293T (setting [5]), 0. The “Growth Rate” value worked out at 1 with HEK-293T (setting [1]); 1 in the data set on HEK-293T (setting [2]); 0 in the data set with HEK-293T (setting [7]); 1 in the data set on HEK-293T (setting [3]); 0 in the data set on HEK-293T (setting [8]); 1 with HEK-293T (setting [4]). Moreover, the “Growth Rate” value in the data set on HEK-293T (setting [9]) was 0; in the data set with Fibroblast (setting [5]), 0; in the data set on Fibroblast (setting [1]), 1; in the data set with Fibroblast (setting [10]) it was 0; in the data set with Fibroblast (setting [2]) it was 0; in the data set with Fibroblast (setting [3]) it was 1. The “Growth Rate” value with Fibroblast (setting [8]) and with Fibroblast (setting [4]) was 0 each time.

As for `COc1cc2c(cc1NS(=O)(=O)c1ccc(Br)cc1C)n(C)c(=O)n2C`, the “Growth Rate” value is 0 in the data set with U2OS (setting [5]); 1 in the data set with U2OS (setting [1]); 1 in the data set on U2OS (setting [2]); 1 with U2OS (setting [3]); 1 in the data set on U2OS (setting [4]); 1 with HEK-293T (setting [5]). Besides, the “Growth Rate” value with HEK-293T (setting [6]), with HEK-293T (setting [1]), in the data set with HEK-293T (setting [2]), in the data set with HEK-293T (setting [3]), with HEK-293T (setting [4]) and with Fibroblast (setting [5]) was 0 each time. Also, the “Growth Rate” value in the data set on Fibroblast (setting [10]) turned out to be 0; in the data set on Fibroblast (setting [2]), 1; in the data set with Fibroblast (setting [7]) it was 0; in the data set with Fibroblast (setting [3]), 1; with Fibroblast (setting [4]), 1; with Fibroblast (setting [9]), 0.

With `CN1CCc2c(c3ccccc3n2Cc2ccc(C(=O)NO)cc2)C1` [TUBASTATIN A], the “Growth Rate” value in the data set with U2OS (setting [5]) came out at 0; in the data set on U2OS (setting [1]), 1; with U2OS (setting [2]), 1; in the data set with U2OS (setting [3]), 1; in the data set on U2OS (setting [4]), 1; in the data set on HEK-293T (setting [5]) it was 0. Further, the “Growth Rate” value is reported as 1 in the data set with HEK-293T (setting [6]); 1 in the data set with Fibroblast (setting [5]); 0 with Fibroblast (setting [10]); 0 in the data set with Fibroblast (setting [7]); 1 in the data set with Fibroblast (setting [3]); 0 with Fibroblast (setting [8]). Besides, the “Growth Rate” value in the data set on Fibroblast (setting [4]) came to 1.

For the compound `CN(C)C(=O)Cn1cc(-c2nc([C@@](C)(c3ccc(-c4cnc(N)nc4)cc3)C3CC3)no2)cn1` [BI 665915], the “Growth Rate” value in the data set on U2OS (setting [5]) worked out at 0; in the data set on U2OS (setting [1]), 0; with U2OS (setting [10]), 1; with U2OS (setting [2]) it was 1; in the data set on U2OS (setting [3]), 0; with U2OS (setting [4]), 1. Further, the “Growth Rate” value in the data set with U2OS (setting [9]) stood at 0; with HEK-293T (setting [5]), 0; in the data set on HEK-293T (setting [6]) it was 1; with HEK-293T (setting [1]), 0; in the data set on HEK-293T (setting [2]), 0; with HEK-293T (setting [7]), 1. The “Growth Rate” value in the data set with HEK-293T (setting [3]) was determined as 0; in the data set with HEK-293T (setting [8]), 1; in the data set on HEK-293T (setting [4]), 0; with HEK-293T (setting [9]), 1; in the data set with Fibroblast (setting [5]) it was 1; in the data set on Fibroblast (setting [1]) it was 1. The “Growth Rate” value in the data set on Fibroblast (setting [2]) is reported as 1; in the data set with Fibroblast (setting [3]), 0; with Fibroblast (setting [8]), 1; in the data set on Fibroblast (setting [4]), 0; in the data set on Fibroblast (setting [9]) it was 1.

For the origin of these results see ChEMBL document CHEMBL4689842, “EUbOPEN Chemogenomics Library wave 1” (2021).
